Data on ten molecules can be found in patent US6699884B2, “Fluoro-substituted benzenesulfonyl compounds for the treatment of inflammation” (Pharmacia Corporation, priority 2001, dated 2004).

In general, IC50 refers to the concentration that gives 50% inhibition.

The target in one assay is T1, Human COX-1 (Homo sapiens, UniProt P23219).
T1 construct: A 2.0 kb fragment containing the coding region of either human or murine COX-1 or human or murine COX-2; made in house; host or cells: SF9 insect cells (baculovirus, pVL1393)
Briefly: Fast assay for COX-1 activity (PGE2 formed, ELISA). The assay is classed as biochemical. The settings on record: recombinant enzyme in CHAPS-solubilized insect cell membranes; 10 min pre-incubation at 25° C.; 10 μM arachidonic acid. How it is done:
Recombinant baculoviruses were isolated by transfecting 4 μg of baculovirus transfer vector DNA into SF9 insect cells (2×10^8) along with 200 ng of linearized baculovirus plasmid DNA by the calcium phosphate method. See M. D. Summers and G. E. Smith, A Manual of Methods for Baculovirus Vectors and Insect Cell Culture Procedures, Texas Agric. Exp. Station Bull. […] Recombinant viruses were purified by three rounds of plaque purification and high titer (10^7-10^8 pfu/mL) stocks of virus were prepared. For large scale production, SF9 insect cells were infected in 10 liter fermentors (0.5×10^6/mL) with the recombinant baculovirus stock such that the multiplicity of infection was 0.1. After 72 hours the cells were centrifuged and the cell pellet homogenized in Tris/Sucrose (50 mM: 25%, pH 8.0) containing 1% 3-[(3-cholamidopropyl)dimethylammonio]-1-propanesulfonate (CHAPS). The homogenate was centrifuged at 10,000×G for 30 minutes, and the resultant supernatant was stored at −80° C. before being assayed for COX activity.
COX activity was assayed as PGE2 formed/μg protein/time using an ELISA to detect the prostaglandin released. CHAPS-solubilized insect cell membranes containing the appropriate COX enzyme were incubated in a potassium phosphate buffer (50 mM, pH 8.0) containing epinephrine, phenol, and heme with the addition of arachidonic acid (10 μM). Compounds were pre-incubated with the enzyme for 10-20 minutes prior to the addition of arachidonic acid. Any reaction between the arachidonic acid and the enzyme was stopped after ten minutes at 37° C. room temperature by transferring 40 μl of reaction mix into 160 μl ELISA buffer and 25 μM indomethacin. The PGE2 formed was measured by standard ELISA technology (Cayman Chemical).
COX activity was assayed as PGE2 formed/μg protein/time using an ELISA to detect the prostaglandin released. […] Compounds were pre-incubated with the enzyme for 10 minutes at 25° C. prior to the addition of arachidonic acid. Any reaction between the arachidonic acid and the enzyme was stopped after two minutes at 37° C./room temperature by transferring 40 μl of reaction mix into 160 μl ELISA buffer and 25 μM indomethacin. The PGE2 formed was measured by standard ELISA technology (Cayman Chemical).
(In general: An ELISA detects its analyte on a solid surface through an enzyme-linked reagent.)

For a further assay, the target named is T2, Human COX-2 (Homo sapiens, UniProt P35354).
T2 construct: A 2.0 kb fragment containing the coding region of either human or murine COX-1 or human or murine COX-2; made in house; host or cells: SF9 insect cells (baculovirus, pVL1393)
T2 sequence (P35354 18-604): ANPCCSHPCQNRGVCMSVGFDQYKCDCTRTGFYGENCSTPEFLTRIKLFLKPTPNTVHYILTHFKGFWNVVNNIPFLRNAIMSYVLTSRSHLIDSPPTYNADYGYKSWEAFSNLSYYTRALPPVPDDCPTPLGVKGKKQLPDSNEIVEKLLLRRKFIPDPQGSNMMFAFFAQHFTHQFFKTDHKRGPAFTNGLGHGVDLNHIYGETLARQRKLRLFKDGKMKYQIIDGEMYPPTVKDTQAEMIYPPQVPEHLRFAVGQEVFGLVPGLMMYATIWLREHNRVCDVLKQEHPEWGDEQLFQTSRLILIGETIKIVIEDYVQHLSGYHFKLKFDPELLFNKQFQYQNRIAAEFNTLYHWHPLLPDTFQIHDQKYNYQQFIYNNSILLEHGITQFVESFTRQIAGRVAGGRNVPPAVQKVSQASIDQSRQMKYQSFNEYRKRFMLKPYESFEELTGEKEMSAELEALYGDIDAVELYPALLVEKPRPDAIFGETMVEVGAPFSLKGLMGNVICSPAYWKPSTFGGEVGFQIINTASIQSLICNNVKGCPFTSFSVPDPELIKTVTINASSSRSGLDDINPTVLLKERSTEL
Briefly: Fast assay for COX-2 activity (PGE2 formed, ELISA). Type of assay: biochemical. The settings on record: recombinant enzyme in CHAPS-solubilized insect cell membranes; 10 min pre-incubation at 25° C.; 10 μM arachidonic acid.

Structures are written as SMILES. Where only a bound is given, the exact number is not on record here.

Regarding `CS(=O)(=O)c1c(F)cc(-c2cc(C(F)F)nn2C2CCCCC2)cc1F` [Example 5, 1-cyclohexyl-3-(difluoromethyl)-5-[3,5-difluoro-4-(methylsulfonyl)phenyl]-1H-pyrazole], the IC50 on Human COX-1 is above 100000 nM.

`CS(=O)(=O)c1cc(F)c(-c2cc(C(F)(F)F)nn2-c2ccc(Cl)cc2)cc1F` [Example 7, 1-(4-chlorophenyl)-5-[2,5-difluoro-4-(methylsulfonyl)-phenyl]-3-(trifluoromethyl)-1H-pyrazole]: the IC50 was found to be 90 nM at Human COX-2 and 56700 nM at Human COX-1.

As to `Cc1ccc(-n2nc(C(F)F)cc2-c2cc(F)c(S(C)(=O)=O)c(F)c2)cc1Cl` [Example 2, 1-(3-chloro-4-methylphenyl)-3-(difluoromethyl)-5-[3,5-difluoro-4-(methylsulfonyl)phenyl]-1H-pyrazole], the values for the IC50 on Human COX-2 and on Human COX-1 were 550 nM and above 100000 nM, respectively.

Regarding `CS(=O)(=O)c1c(F)cc(-c2cc(C(F)(F)F)nn2-c2ccc(F)cc2)cc1F` [Example 1, 5-[3,5-difluoro-4-(methylsulfonyl)phenyl]-1-(4-fluorophenyl)-3-(trifluoromethyl)-1H-pyrazole], the IC50 at Human COX-2 is 3440 nM; at Human COX-1, above 100000 nM. On to `Cc1ccc(-n2nc(C(F)(F)F)cc2-c2cc(F)c(S(C)(=O)=O)c(F)c2)cc1Cl` [Example 6, 1-(3-chloro-4-methylphenyl)-5-[3,5-difluoro-4-(methylsulfonyl)phenyl]-3-(trifluoromethyl)-1H-pyrazole], for which the IC50 on Human COX-2 was 90 nM; on Human COX-1, above 100000 nM. The like results for `CS(=O)(=O)c1c(F)cc(-c2cc(C(F)(F)F)nn2-c2cccc(C(F)(F)F)c2)cc1F` [Example 3, 5-[3,5-difluoro-4-(methylsulfonyl)phenyl]-3-(trifluoromethyl)-1-[3-(trifluoromethyl)phenyl]-1H-pyrazole] were, in that order, 300 nM and above 100000 nM. On to `Cc1onc(-c2ccccc2)c1-c1cc(F)c(S(C)(=O)=O)c(F)c1` [Example 14, 4-[3,5-difluoro-4-(methylsulfonyl)phenyl]-5-methyl-3-phenylisoxazole], for which the IC50 at Human COX-1 was above 100000 nM. As to `CS(=O)(=O)c1c(F)cc(-c2cc(C(F)(F)F)nn2-c2ccc(OC(F)(F)F)cc2)cc1F` [Example 4, 5-[3,5-difluoro-4-(methylsulfonyl)phenyl]-1-[4-(trifluoromethoxy)phenyl]-3-(trifluoromethyl)-1H-pyrazole], the IC50 on Human COX-2 was 100 nM; on Human COX-1, above 100000 nM.

For `Cc1onc(-c2ccccc2)c1-c1cc(F)c(S(N)(=O)=O)c(F)c1` [Example 15, 2,6-difluoro-4-(5-methyl-3-phenylisoxazol-4-yl)benzene-sulfonamide], the IC50 is 120 nM at Human COX-2 and above 100000 nM on Human COX-1.

Regarding `COc1ccc(-n2nc(C(F)(F)F)cc2-c2cc(F)c(S(C)(=O)=O)cc2F)cc1` [Example 8, 5-[2,5-difluoro-4-(methylsulfonyl)phenyl]-1-(4-methoxyphenyl)-3-(trifluoromethyl)-1H-pyrazole], the values for the IC50 at Human COX-2 and on Human COX-1 were 250 nM and 14800 nM, respectively.
